# According to patent publication US6436423B1, “Product and method for improving avian health” (Arkion Life Sciences, priority 1998, dated 2002):
# Key:
# [1] = test system: Ross x Hubbard HyY broiler chicks; assay: Example 2: efficacy of AQ applied to the litter used in broiler chicken houses, dose titration (42 day performance); assay type: in vivo
# Description: The term “weight adjusted feed efficiency” is based upon a feed efficiency corrected to a standard weight called the “weight adjusted feed efficiency” (WAFE). Feed efficiency can be adjusted to a standard weight of 2.00 kg. For every 31.78 grams difference in weight, the feed efficiency can be adjusted by 0.01. For example:
# (§1) A total of 6912 one-day-old straight run Ross x Hubbard HyY broiler chicks was used in the experiment. There were 12 treatments with 8 replicates per treatment and 72 birds per replicate. The individual pen was the experimental unit. The experimental treatments used were as follows:
# 1. Negative Control—No coccidiostat or growth promoting antibiotics—No litter treatment
# 4. No litter treatment—BioCox (half dose)
# 3. 4× AQ litter treatment—No feed additives
# 4. 4× AQ litter treatment—BioCox (half dose)
# 5. 10.0× AQ litter treatment—No feed additives
# 6. 4.0× AQ litter treatment+BioCox (low dose)+BMD+3-Nitro
# 7. 4.0× AQ litter treatment BioCox (low dose)+BMD+3-Nitro
# 8. 10× AQ litter treatment−BioCox (half dose)
# 9. Positive Control BioCox (full dose)+BMD+3-Nitro
# 10. 4× AQ litter treatment−BioCox (full dose)+BMD+3-Nitro
# 11. 10× AQ litter treatment−BioCox (half dose)+BMD+3-Nitro
# 12. 10× AQ litter treatment−BioCox (full dose)+BMD+3-Nitro.
# (§2) 4× Solution of AQ−1 Gallon/44,000sqft×4.2 ml per 48sqft (one pen)
# [2] = test system: Ross x Hubbard HyY broiler chicks; assay: Example 1: efficacy of AQ applied to the litter used in broiler chicken houses (42 day performance); assay type: in vivo; conditions: AQ applied to the litter at the 1.0× dose; full dose and half dose of coccidiostat in the feed
# Description: A total of 3456 one-day-old straight run Ross x Hubbard HyY broiler chicks was used in the experiment. There were 6 treatments with 8 replicates per treatment and 72 birds per replicate. The individual pen was the experimental unit. The experimental treatments used follows:
# 1. Negative Control =No coccidiostat or growth promoting antibiotics and no litter treatment
# 2. Positive Control=BioCox® (full dose)+BMD®+3-Nitro and no litter treatment
# 3. BioCox® (full dose)+BMD®+3-Nitro+0.5× litter treatment*
# 4. BioCox® (full dose)+BMD®+3-Nitro+1.0× AQ litter treatment**
# 5. BioCox® (half dose)+BMD®+3-Nitro+0.5× AQ litter treatment
# 6. BioCox® (half dose)+BMD®+3-Nitro+1.0× AQ litter treatment
# *0.5× Solution of AQ−⅛ Gallon/44,000sqft
# **1.0× Solution of AQ−¼ Gallon/44,000sqfi
# coccidia = assay: Example 2: intestinal lesion scores (intestinal coccidia score); assay type: in vivo, broiler chicken; conditions: 14 day data; 10× or 4× AQ dose on litter combined with typically used poultry diets
# Description: as §1, §2
# This means that the lesion score difference was greater than 1 unit (scoring range of 0-4).
# [3] = 10× AQ dose on litter combined with typically used poultry diets
# [4] = 10× AQ dose on litter, diet contained no coccidiostat or antibiotic feed additive
smiles,measurement,setting,value
"O=C1c2ccccc2C(=O)c2ccccc21 [AQ, anthraquinone]",feed efficiency compared with the positive control (conclusion),[1]; [3],significantly improved (p<0.05) over the positive control
same,weight gain compared with the positive control (conclusion),[1]; [3],significantly improved (p<0.05) over the positive control
same,feed efficiency compared with the negative control (conclusion),[1]; [4],significant difference between this treatment and the negative control
same,feed efficiency compared with the positive control (conclusion),[1]; [4],no difference from the positive control
same,effect of addition of AQ to the litter on weight gain (conclusion),[1]; dose titration study,tends to improve weight gain numerically
same,effect on feed efficiency (conclusion),[2],improvement in feed efficiency
same,intestinal coccidia score compared with the positive and negative control (conclusion),coccidia,improved significantly (p<0.05) over the positive and negative control
